Like-named read-outs stand apart in the source and are kept apart here. Some results are limits rather than exact numbers.

From patent US20250152585A1, “PHARMACEUTICAL COMPOUND” (Duke Street Bio Limited, priority 2022, published 2025) come the findings set out here.

Test [1] addresses T1, N-terminally FLAG-tagged PARP2 (amino acids 1-583) (Homo sapiens, UniProt Q9UGN5).
T1 construct: N-terminally FLAG-tagged PARP2 (amino acids 1-583)
Nature of the test: PARP2 probe displacement HTRF assay. The test is classed as binding. The following applies: binned Kd. Here is the method: Data analysis was performed identical as for PARP1.

The target of another test is T2, PARP2 (Homo sapiens, UniProt Q9UGN5).
T2 construct: host or cells: HEK293
Nature of the test: NanoBRET cellular target occupancy assay, PARP2. The class given is cell-based. The following applies: HEK293 cells transiently transfected with PARP2-NanoLuc fusion; tracer 2 nM; 2 hours at 37° C.; Kd by Cheng-Prussoff. The text has this:
NanoBRET Cellular Target Occupancy Assay

Another test has as its target T3, PARP1 (Homo sapiens, UniProt P09874).
T3 construct: host or cells: HEK293
The test is described as follows: NanoBRET cellular target occupancy assay, PARP1. The following applies: for Kd: HEK293 cells transiently transfected with PARP1-NanoLuc fusion, tracer 11 nM, 2 hours at 37° C., Kd by Cheng-Prussoff; for Selectivity: NanoBRET, PARP1 over PARP2, Kd (PARP2)/Kd (PARP1). The test is classed as cell-based.

In test [2] the target is T4, full length N-terminally FLAG-tagged PARP1 (Homo sapiens, UniProt P09874). The test is described as follows: PARP1 biochemical DELFIA assay (auto-PARylation). Also noted: recombinant full length human N-terminally FLAG-tagged PARP1.
The target in test [3] is T4, full length N-terminally FLAG-tagged PARP1. The test is described as follows: PARP1 probe displacement HTRF assay. Conditions: for Kd: binned Kd; for Selectivity: PARP1 over PARP2, ratio Kd (PARP2)/Kd (PARP1).
Setting [4] is: binned IC50, biochemical auto-PARylation assay.
The mark [5] stands for this setting: PARP1 HTRF, probe displacement HTRF.
The mark [6] stands for this setting: binned IC50, PARP1 biochemical DELFIA assay.
The mark [7] stands for this setting: read-out: PARP1 HTRF, PARP1 probe displacement HTRF.
The mark [8] stands for this setting: read-out: PARP1 HTRF, probe displacement HTRF.

T4 sequence (P09874 whole entry): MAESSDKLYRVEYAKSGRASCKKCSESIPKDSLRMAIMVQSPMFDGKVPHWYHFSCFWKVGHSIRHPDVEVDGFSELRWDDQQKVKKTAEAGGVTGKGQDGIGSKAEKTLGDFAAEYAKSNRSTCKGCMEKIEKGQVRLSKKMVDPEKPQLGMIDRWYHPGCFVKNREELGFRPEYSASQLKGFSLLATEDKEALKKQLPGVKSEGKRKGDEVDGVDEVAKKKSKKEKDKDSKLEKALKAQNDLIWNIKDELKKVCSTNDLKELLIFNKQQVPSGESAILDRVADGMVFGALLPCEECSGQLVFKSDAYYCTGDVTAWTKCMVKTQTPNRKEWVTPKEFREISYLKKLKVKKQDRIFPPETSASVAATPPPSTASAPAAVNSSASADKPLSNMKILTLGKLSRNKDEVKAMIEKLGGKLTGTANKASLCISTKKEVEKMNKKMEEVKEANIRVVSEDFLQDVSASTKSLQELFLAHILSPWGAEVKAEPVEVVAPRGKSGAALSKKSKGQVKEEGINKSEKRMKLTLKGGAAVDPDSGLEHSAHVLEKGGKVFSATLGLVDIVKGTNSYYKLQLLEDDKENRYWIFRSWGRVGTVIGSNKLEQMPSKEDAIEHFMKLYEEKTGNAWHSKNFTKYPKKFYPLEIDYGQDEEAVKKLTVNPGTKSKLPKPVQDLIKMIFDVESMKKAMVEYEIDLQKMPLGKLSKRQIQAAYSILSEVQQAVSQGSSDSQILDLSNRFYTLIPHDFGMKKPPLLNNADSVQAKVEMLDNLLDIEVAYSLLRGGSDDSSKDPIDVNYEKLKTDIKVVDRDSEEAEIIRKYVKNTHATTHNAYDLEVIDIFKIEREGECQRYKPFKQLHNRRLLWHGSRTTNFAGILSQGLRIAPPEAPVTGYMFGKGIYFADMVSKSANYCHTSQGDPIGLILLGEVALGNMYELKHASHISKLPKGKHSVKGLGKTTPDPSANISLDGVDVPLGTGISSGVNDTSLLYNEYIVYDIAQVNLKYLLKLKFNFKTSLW
T3 sequence (P09874 whole entry): as above
T2 sequence (Q9UGN5 whole entry): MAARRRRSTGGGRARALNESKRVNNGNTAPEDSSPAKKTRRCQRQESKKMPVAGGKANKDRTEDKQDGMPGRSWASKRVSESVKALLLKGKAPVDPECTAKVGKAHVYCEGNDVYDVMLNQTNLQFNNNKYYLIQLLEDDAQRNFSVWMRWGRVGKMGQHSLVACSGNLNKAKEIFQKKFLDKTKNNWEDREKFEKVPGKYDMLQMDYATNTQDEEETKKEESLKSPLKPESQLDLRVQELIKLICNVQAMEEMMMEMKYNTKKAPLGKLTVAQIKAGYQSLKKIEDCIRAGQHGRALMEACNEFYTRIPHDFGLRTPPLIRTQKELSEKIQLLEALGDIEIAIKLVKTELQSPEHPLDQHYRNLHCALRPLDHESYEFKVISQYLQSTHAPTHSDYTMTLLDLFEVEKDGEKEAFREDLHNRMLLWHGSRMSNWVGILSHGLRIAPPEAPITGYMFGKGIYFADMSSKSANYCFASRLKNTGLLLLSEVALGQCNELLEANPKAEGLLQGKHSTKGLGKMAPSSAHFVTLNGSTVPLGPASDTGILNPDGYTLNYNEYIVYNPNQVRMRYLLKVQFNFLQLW
T1 sequence (Q9UGN5 whole entry, the tested form may be a part): as the sequence (Q9UGN5 whole entry) above

Take `CNC(=O)c1ccc(N2CCC(N3CCC(c4cc5ncc(F)cc5c(=O)[nH]4)C3)CC2)c(F)n1` (racemic) [Compound 324rac, 6-fluoro-5-(4-(3-(3-fluoro-5-oxo-5,6-dihydro-1,6-naphthyridin-7-yl)pyrrolidin-1-yl)piperidin-1-yl)-N-methylpicolinamide]: the Kd in test [1] (probe displacement HTRF) was 100 to 1000 nM; at PARP2 it was 1000 to 10000 nM; at PARP1, under 10 nM; in test [3] (setting [5]), under 10 nM. Also, the Selectivity entry (on PARP1; in test [3] (probe displacement HTRF)) was “+++ (+++ indicate a value of at least 100)” in each case. Also, in test [2] (setting [4]), the IC50 was under 10 nM.
As for `CCc1ccc(C2CCN(C3CCN(c4ccc(C(=O)NC)nc4Cl)CC3)C2)[nH]c1=O` (racemic) [Compound 144rac], the Kd in test [1] (PARP2 probe displacement HTRF) was 1000 to 10000 nM; on PARP2 it was over 10000 nM; on PARP1, under 10 nM; in test [3] (setting [7]), under 10 nM. The Selectivity result (on PARP1; in test [3] (probe displacement HTRF)) was “+++ (+++ indicate a value of at least 100)” throughout. Besides, the IC50 in test [2] (setting [6]) was under 10 nM.
As for `CNC(=O)c1ccc(N2CCC(N3CCC(c4cc5ncc(Cl)cc5c(=O)[nH]4)C3)CC2)c(F)n1` (single isomer, unassigned) [Compound 344b], the Kd was 1000 to 10000 nM in test [1] (probe displacement HTRF), over 10000 nM at PARP2, under 10 nM on PARP1 and under 10 nM in test [3] (setting [8]). Also, the Selectivity result (at PARP1; in test [3] (probe displacement HTRF)) was “+++ (+++ indicate a value of at least 100)” each time. In addition, the IC50 in test [2] (setting [4]) is under 10 nM.
As to `CNC(=O)c1ccc(N2CCC(N3CCC(c4cc5ccc(F)cc5c(=O)[nH]4)C3)CC2)c(C)n1` (single isomer, unassigned) [Compound 196a], the Kd in test [1] (PARP2 probe displacement HTRF) is 100 to 1000 nM; on PARP2, 100 to 1000 nM; at PARP1 it was under 10 nM; in test [3] (setting [7]) it was under 10 nM. Besides, the Selectivity result (at PARP1; in test [3] (probe displacement HTRF)) was “+++ (+++ indicate a value of at least 100)” each time. For the same compound, the IC50 in test [2] (setting [6]) was under 10 nM.
With `CNC(=O)c1ccc(N2CCC(N3CCC(c4cc5ccc(F)cc5c(=O)[nH]4)C3)CC2)c(F)n1` (racemic) [Compound 174rac], the Kd in test [1] (PARP2 probe displacement HTRF) is 100 to 1000 nM; at PARP2, 1000 to 10000 nM; at PARP1 it was under 10 nM; in test [3] (setting [7]) it was under 10 nM. Further, the Selectivity entry (at PARP1; in test [3] (probe displacement HTRF)) was “+++ (+++ indicate a value of at least 100)” in each case. In test [2] (setting [6]), the 50% inhibitory concentration (IC50) was under 10 nM.
Consider `CNC(=O)c1ccc(N2CCC(N3CCC(c4cc5ccc(Cl)cc5c(=O)[nH]4)C3)CC2)cn1` (single isomer, unassigned) [Compound 129b], for which the Kd in test [1] (PARP2 probe displacement HTRF) was 10 to 100 nM; on PARP2, 100 to 1000 nM; at PARP1 it was under 10 nM; in test [3] (setting [7]) it was under 10 nM. Also, the Selectivity result (at PARP1; in test [3] (probe displacement HTRF)) was “+++ (+++ indicate a value of at least 100)” throughout. In addition, the IC50 in test [2] (setting [6]) is under 10 nM.
With `CNC(=O)c1ccc(N2CCC(N3CC4(c5nc6c(c(=O)[nH]5)CCC6)CC3C4)CC2)cn1` [Compound 295], the Kd in test [1] (probe displacement HTRF) was over 10000 nM; on PARP2, over 10000 nM; at PARP1, 10 to 100 nM; in test [3] (setting [5]), under 10 nM. The Selectivity entry on PARP1 was “++ (++ indicates a value of 50 to less than 100)”; in test [3] (probe displacement HTRF) it was “+++ (+++ indicate a value of at least 100)”. For the same compound, the IC50 in test [2] (setting [4]) is under 10 nM.
`CNC(=O)c1ccc(N2CCC(N3CCC(c4cc5ccc(F)cc5c(=O)[nH]4)C3)CC2)cn1` (single isomer, unassigned) [Compound 154b, 5-(4-(3-(7-fluoro-1-oxo-1,2-dihydroisoquinolin-3-yl)pyrrolidin-1-yl)piperidin-1-yl)-N-methylpicolinamide]: the Kd in test [1] (PARP2 probe displacement HTRF) was 10 to 100 nM; at PARP2, 100 to 1000 nM; at PARP1, under 10 nM; in test [3] (setting [7]), under 10 nM. The Selectivity result is on record as “+++ (+++ indicate a value of at least 100)” at PARP1 and “+ (+ indicates a value of 10 to less than 50)” in test [3] (probe displacement HTRF). Moreover, the IC50 in test [2] (setting [6]) was under 10 nM.
Regarding `CNC(=O)c1ccc(N2CCC(N3CCC(c4ccc(CC5CC5)c(=O)[nH]4)C3)CC2)c(F)n1` (single isomer, unassigned) [Compound 313b], the Kd is 1000 to 10000 nM in test [1] (probe displacement HTRF), 1000 to 10000 nM at PARP2, under 10 nM at PARP1 and under 10 nM in test [3] (setting [8]). In addition, the Selectivity result (at PARP1; in test [3] (probe displacement HTRF)) was “+++ (+++ indicate a value of at least 100)” throughout. Also, the IC50 in test [2] (setting [4]) is under 10 nM.
For the compound `CNC(=O)c1ccc(N2CCC(N3CCC(c4cc5c(F)ccc(F)c5c(=O)[nH]4)C3)CC2)c(F)n1` (single isomer, unassigned) [Compound 323a], the Kd was over 10000 nM in test [1] (probe displacement HTRF), over 10000 nM at PARP2, under 10 nM on PARP1 and under 10 nM in test [3] (setting [8]). The Selectivity entry (at PARP1; in test [3] (probe displacement HTRF)) was “+++ (+++ indicate a value of at least 100)” in each case. The IC50 in test [2] (setting [4]) is under 10 nM.
For the compound `CNC(=O)c1ccc(N2CCC(N3CC4(c5nc6c(c(=O)[nH]5)CCCN6)CC3C4)CC2)cn1` [Compound 312], the Kd in test [1] (probe displacement HTRF) is 100 to 1000 nM; on PARP2, 1000 to 10000 nM; on PARP1, 100 to 1000 nM; in test [3] (setting [5]) it was under 10 nM. The Selectivity result is on record as “++ (++ indicates a value of 50 to less than 100)” on PARP1 and “+++ (+++ indicate a value of at least 100)” in test [3] (probe displacement HTRF). The IC50 in test [2] (setting [4]) was under 10 nM.
For the compound `CNC(=O)c1ccc(N2CCC(N3CC4(c5nc6ccccc6c(=O)[nH]5)CC3C4)CC2)cn1` [Compound 192, N-methyl-5-(4-(4-(4-oxo-3,4-dihydroquinazolin-2-yl)-2-azabicyclo[2.1.1]hexan-2-yl)piperidin-1-yl)picolinamide], the Kd in test [1] (PARP2 probe displacement HTRF) was 1000 to 10000 nM; at PARP2, 1000 to 10000 nM; on PARP1, under 10 nM; in test [3] (PARP1 HTRF, PARP1 probe displacement HTRF) it was under 10 nM. Further, the Selectivity entry (at PARP1; in test [3] (probe displacement HTRF)) was “+++ (+++ indicate a value of at least 100)” each time. Moreover, the IC50 in test [2] (setting [6]) was under 10 nM.
`CNC(=O)c1ccc(N2CCC(N3CCC(c4nc5c(c(C(F)(F)F)cn5C)c(=O)[nH]4)C3)CC2)cn1` (racemic) [Compound 170rac]: the Kd was under 10 nM in test [1] (PARP2 probe displacement HTRF), 10 to 100 nM on PARP2, under 10 nM on PARP1 and under 10 nM in test [3] (setting [7]). Further, the Selectivity entry on PARP1 is “+ (+ indicates a value of 10 to less than 50)”; in test [3] (probe displacement HTRF), “− (− indicates a value of less than 10)”. For the same compound, the half-inhibitory concentration (IC50) in test [2] (setting [6]) was under 10 nM.
For the compound `CCc1ccc(C2CCN(C3CCN(c4ccc(C(=O)NCC(F)F)nc4)CC3)C2)[nH]c1=O` (single isomer, unassigned) [Compound 354b], the Kd is 100 to 1000 nM in test [1] (probe displacement HTRF), 100 to 1000 nM on PARP2, under 10 nM at PARP1 and under 10 nM in test [3] (setting [8]). In addition, the Selectivity result (at PARP1; in test [3] (probe displacement HTRF)) was “+++ (+++ indicate a value of at least 100)” in each case. In addition, in test [2] (setting [4]), the IC50 was under 10 nM.
On to `CNC(=O)c1ccc(N2CCC(N3CCC(c4cc5cccc(F)c5c(=O)[nH]4)C3)CC2)cn1` (single isomer, unassigned) [Compound 136b, 5-{4-[3-(8-fluoro-1-oxo-2H-isoquinolin-3-yl)pyrrolidin-1-yl]piperidin-1-yl}-N-methylpyridine-2-carboxamide], for which the Kd in test [1] (PARP2 probe displacement HTRF) is 10 to 100 nM; at PARP2 it was 100 to 1000 nM; at PARP1, under 10 nM; in test [3] (setting [7]), under 10 nM. For the same compound, the Selectivity result (at PARP1; in test [3] (probe displacement HTRF)) was “+++ (+++ indicate a value of at least 100)” in each case. Moreover, the IC50 in test [2] (setting [6]) was under 10 nM.
`O=C(NC1CC1)c1ccc(N2CCC(N3CCC(c4cc5cccc(F)c5c(=O)[nH]4)C3)CC2)cn1` (single isomer, unassigned) [Compound 339a]: the Kd in test [1] (probe displacement HTRF) is 10 to 100 nM; on PARP2 it was 10 to 100 nM; at PARP1, under 10 nM; in test [3] (setting [8]), under 10 nM. The Selectivity result (on PARP1; in test [3] (probe displacement HTRF)) was “+ (+ indicates a value of 10 to less than 50)” each time. In addition, the IC50 in test [2] (setting [4]) is under 10 nM.
